In patent publication US8476037B2, “Method for screening of antiviral agents” (priority 2010, dated 2013):

Molecular target: M2(1-49) channel forming segment of the M2 protein (Influenza A virus, UniProt P0DOF5)
Assay type: cell-based

Sequence of M2(1-49) channel forming segment of the M2 protein (P0DOF5 1-49 limits assumed): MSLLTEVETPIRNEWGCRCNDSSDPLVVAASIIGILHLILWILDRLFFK

`Cl.NC12CC3CC(CC(C3)C1)C2` [amantadine, 1-aminoadamantane hydrochloride] was tested, and the “expression of M2(1-49) protein in SPP culture” value was “the M2(1-49) protein was expressed” and the “rescue of expression of M2(1-49)” value ([…], addition of amantadine) was “rescued”.
